The values below come from patent US20250289827A1, “MORPHIC FORMS OF A MUTANT BRAF DEGRADER AND METHODS OF MANUFACTURE THEREOF” (C4 THERAPEUTICS, INC., priority 2022, published 2025).

A short description of series [1]: Approximate solubility at 25° C. and 50° C. (visual). Type of series: physicochemical. The procedure:
About 5 mg of Compound 1 Form A was weighed to a 2 mL glass vial. 20 μL aliquots of each solvent were added to dissolve the drug substance at 25° C. About 10 mg of Compound 1 Form A was weighed to a 2 mL glass vial. 20 μL aliquots of each solvent were added to dissolve the drug substance at 50° C. Vortex and sonication were applied to assist dissolution. Maximum volume of each solvent added was 1 mL. Approximate solubility was determined by visual observation.
About 5 mg of Compound 1 Form B was weighed to a 2 mL glass vial. 20 μL aliquots of each solvent were added to dissolve the drug substance at 25° C. About 10 mg of Compound 1 Form B was weighed to a 2 mL glass vial. […] aliquots of each solvent were added to dissolve the drug substance at 50° C. Vortex and sonication were applied to assist dissolution. Maximum volume of each solvent added is 1 mL. Approximate solubility was determined by visual observation.

Series [2] in a line: Wet granulation simulation experiments. Type of series: physicochemical. The procedure: Water or ethanol was added drop wise to about 20 mg of Compound 1 Form B until the sample was wetted sufficiently. Wet sample was ground gently with in a mortar and a pestle. Post granulation sample was dried under ambient condition for 10 min. Potential form change and degree of crystallinity were evaluated by XRPD.

The subject of series [3] is patient-derived xenograft (PDX) of non-small cell lung carcinoma (NSCLC) with BRAF V600E mutation. Nature of the series: Efficacy in BRAF V600E NSCLC PDX model. To be noted: for Tumor response: day 28.
Series [4] is described as follows: Plasma and tumor pharmacokinetics in A2058 xenograft mice. To be noted: Compound 1 10 mg/kg; for concentration at 1 h / concentration at 6 h / concentration at 12 h / concentration at 24 h / concentration at 48 h: BALB/c nude, mouse, oral, single dose p.o., Encorafenib 35 mg/kg, Dabrafenib 100 mg/kg; for Time of peak concentration in plasma / Time of peak concentration in tumor: single oral dose, encorafenib 35 mg/kg, dabrafenib 100 mg/kg. Type of series: in vivo, BALB/c nude mice. The protocol: For the PKPD study, agents were administered to BALB/c nude mice bearing A2058 human melanoma xenografts. Compound 1, encorafenib and dabrafenib were dosed once orally on day 1. Compound 1 was dosed at 10 mg/kg, encorafenib was dosed at 35 mg/kg and dabrafenib was dosed at 100 mg/kg.
To collect non-termination plasma samples, blood samples were collected into the 1.5 mL Eppendorf tubes containing 3 μL of 0.5 M K2 ethylenediaminetetraacetic acid (EDTA-K2). Anticoagulant blood samples were centrifuged at 2500×g at 4° C. for fifteen minutes.
To collect the termination plasma samples, mice were euthanized at predetermined time points after the treatment. Blood samples from the mice were collected into the 1.5 mL Eppendorf tubes containing […] of 0.5 M K2 ethylenediaminetetraacetic acid (EDTA-K2). Anticoagulant blood samples were centrifuged at 2500×g at 4° C. for fifteen minutes.
Tumor samples were collected at predicted time for pharmacokinetic (PK), Western Blot (WB) and formalin-fixed paraffin-embedded (FFPE) sample analysis. The tumor was dissected out, and the tumor sample was split into four parts, from which the 1st part was used for PK analysis, the 2nd part was used for WB analysis, the third part was used for FFPE analysis, and the 4th part was used as a backup for the study. PK and WB samples were transferred into pre-labeled tubes. Samples in tubes were snap-frozen in liquid nitrogen within two minutes after dissection. The samples were stored at −80° C. until analysis. Tumor samples for FFPE analysis were collected and fixed in formalin for twenty-four to forty-eight hours, after which FFPE blocks were prepared for analysis.
The harvested plasma and tumor samples were processed for pharmacokinetics analysis by LC-MS/MS with a concentration range of 0.200˜200 ng/mL for encorafenib, Dabrafenib and Compound 1 in tumor homogenate, 1.00˜1,000 ng/mL for Dabrafenib in plasma and 10.0˜10,000 ng/mL for Compound 1 and encorafenib in plasma.

In series [5] the test system is BRAF V600E mutant A375-luciferase intracranial model. Nature of the series: Efficacy in A375-luciferase intracranial model. To be noted: for Survival rate: as of day 75.
Procedure: For the efficacy study, agents were tested in A375 human melanoma cancer cell derived xenografts (CDX). […] The A375 tumor cells were maintained in vitro in DMEM medium supplemented with 10% fetal bovine serum and 1% Penicillin-Streptomycin at 37° C. in an atmosphere of 5% CO2 in air. The tumor cells were routinely subcultured twice weekly. The cells growing in an exponential growth phase were harvested and counted for tumor inoculation.
For this CNS study, A375 cells with a luciferase tag for tracking tumor cell signal, were injected intracranially into 6-8 week old female BALB/c nude mice. […] The mice were anaesthetized, restrained, and sterilized prior to surgery. […] A 2 mm hole was created to the right of the anterior fontanel and 0.5 mm above the coronal on the skull with a cranial drill. Cell suspensions in 20% Matrigel were mixed and aspirated into the injector carefully to avoid bubbles and wiped to avoid extracranial tumorigenesis. The needle was inserted vertically into the cranial hole and the cell mixture was slowly injected for two minutes and held for another minute to decrease the drainage of the cell suspension. The wound was closed, and a subcutaneous injection of 5 mg/kg Meloxicam was given to relieve the pain and continued for three days. The mice were monitored closely until they woke up after the surgery. After inoculation, the animals were checked daily for morbidity and mortality.
The administration of the test agents began three days after inoculation. […] Measurements for the presence of the A375 luciferase signal within the CNS were done with IVIS Lumina III machine. Images were collected twice weekly to follow the growth of the models. The tumor-bearing mice were weighed and intraperitoneally administered luciferin (Perkin Elmer Inc-122799) at a dosage of 150 mg/kg. After ten minutes, mice were pre-anesthetized with the mixture gas of oxygen and isoflurane. The bioluminescence value at fifteen minutes post luciferin injection was recorded as the final value and plotted. The endpoint for individual mice was reached when the mouse body weight decreased by 20% when compared to their starting weight.
The luciferase signal for the mice removed from study were not carried forward, so a sudden drop in luciferase signal over time is due to mice with a heavy tumor burden being terminated and their high luciferase signal not being carried forward.
Setting [6] is: plasma, read-out: Concentration in Plasma ± SEM.
The mark [7] stands for this setting: tumor, read-out: Concentration in Tumor ± SEM.

Where two headings read alike, the source gives them in different places.

`CCN(C)S(=O)(=O)Nc1ccc(F)c(Oc2ccc3ncn([C@H]4COC5(CCN(C(=O)CC6(O)CCN(c7cc8c(cc7F)c(N7CCC(=O)NC7=O)nn8C)CC6)CC5)C4)c(=O)c3c2)c1C#N` [Compound 1 Form B]: the solubility is on record as 20~25 mg/mL in series [1] (1,4-Dioxane, 25° C., listed as Form B); 28~40 mg/mL in series [1] (1,4-Dioxane, 50° C., listed as Form B); less than 5 mg/mL in series [1] (2-MeTHF, 25° C.); less than 5 mg/mL in series [1] (2-MeTHF, 50° C.); less than 5 mg/mL in series [1] (Acetone, 25° C., listed as Form B); less than 5 mg/mL in series [1] (Acetone, 50° C., listed as Form B). Further, the solubility in series [1] (Acetonitrile, 25° C., listed as Form B) is less than 5 mg/mL; in series [1] (Acetonitrile, 50° C., listed as Form B) it was less than 5 mg/mL; in series [1] (DCM, 25° C., listed as Form B), 83~125 mg/mL; in series [1] (DMSO, 25° C.), “at least 250 mg/mL”; in series [1] (DMSO, 25° C., listed as Form B), more than 250 mg/mL; in series [1] (Ethanol, 50° C.), less than 5 mg/mL. Also, the solubility in series [1] (Heptane, 50° C.) is given as less than 5 mg/mL; in series [1] (Isopropanol, 50° C.), less than 5 mg/mL; in series [1] (MTBE, 50° C.), less than 5 mg/mL; in series [1] (Methanol, 25° C.), less than 5 mg/mL; in series [1] (Methanol, 50° C.) it was less than 5 mg/mL; in series [1] (THF, 25° C., listed as Form B), 10~13 mg/mL. Besides, the solubility is recorded as 16~20 mg/mL in series [1] (THF, 50° C., listed as Form B); less than 5 mg/mL in series [1] (Toluene, 50° C.); less than 5 mg/mL in series [1] (Water, 50° C.). In addition, the “XRPD after wet granulation” value in series [2] (granulation solvent Ethanol) and in series [2] (granulation solvent Water) was “Form B; no crystallinity decrease” each time. For the same compound, in series [2] (in the presence of water or ethanol), the “Crystallinity change after wet granulation” value is “no changes in crystallinity”.

`CCN(C)S(=O)(=O)Nc1ccc(F)c(Oc2ccc3ncn([C@H]4COC5(CCN(C(=O)CC6(O)CCN(c7cc8c(cc7F)c(N7CCC(=O)NC7=O)nn8C)CC6)CC5)C4)c(=O)c3c2)c1C#N` [Compound 1, (3R)-3-[6-[2-cyano-3-[[ethyl(methyl)sulfamoyl]amino]-6-fluorophenoxy]-4-oxoquinazolin-3-yl]-8-[2-[1-[3-(2,4-dioxo-1,3-diazinan-1-yl)-5-fluoro-1-methylindazol-6-yl]-4-hydroxypiperidin-4-yl]acetyl]-1-oxa-8-azaspiro[4.5]decane]: the Tumor response entry in series [3] (10 mg/kg PO BID plus trametinib 0.1 mg/kg PO QD) is listed as “tumor regression”. In addition, the Tumor response entry in series [3] (10 mg/kg PO BID, without trametinib) is listed as “tumor regression”. Moreover, in series [4] (setting [6]), the concentration at 1 h is 32500 ± 1680 ng/mL, the concentration at 6 h was 8500 ± 2970 ng/mL, the concentration at 12 h was determined as 429 ± 137 ng/mL and the concentration at 24 h came to 190 ± 63.2 ng/mL. Also, in series [4] (setting [7]), the concentration at 6 h was 1170 ± 352 ng/g, the concentration at 12 h came out at 191 ± 74.4 ng/g, the concentration at 24 h came out at 76 ± 18.3 ng/g and the concentration at 48 h amounted to 16.1 ± 6.73 ng/g. For the same compound, in series [4], the “Time of peak concentration in plasma” value was “one” and the “Time of peak concentration in tumor” value was “six”. For the same compound, the Survival rate in series [5] (10 mg/kg PO BID) is 50%. Moreover, the Survival rate in series [5] (30 mg/kg PO BID) was found to be 87.5%. Further, in series [5] (intracranial melanoma tumors), the “Survival time compared to encorafenib” value is recorded as “significant increase in survival time”. For the same compound, the “Bioluminescence signal (tumor burden)” value in series [5] (relative to vehicle control or encorafenib treated mice) is “dramatically reduced the bioluminescence signal”.

For `CC(C)(C)c1nc(-c2cccc(NS(=O)(=O)c3c(F)cccc3F)c2F)c(-c2ccnc(N)n2)s1` [dabrafenib], the “Status by day 28” value in series [3] (dabrafenib 100 mg/kg PO QD plus trametinib 0.1 mg/kg PO QD) is given as “reached tumor burden endpoint”. Also, in series [3] (single agent, trametinib 0.1 mg/kg PO QD, dabrafenib 100 mg/kg PO QD), the “Status by day 28” value is reported as “reached tumor burden endpoint”. In series [4] (setting [6]), the concentration at 1 h worked out at 5500 ± 1250 ng/mL, the concentration at 6 h worked out at 790 ± 157 ng/mL, the concentration at 12 h was found to be 189 ± 133 ng/mL and the concentration at 24 h came out at 61.3 ± 53.4 ng/mL. For the same compound, in series [4] (setting [7]), the concentration at 6 h was found to be 480 ± 63.7 ng/g, the concentration at 12 h turned out to be 81.9 ± 40.2 ng/g, the concentration at 24 h came out at 60.1 ng/g and the concentration at 48 h was 8.55 ± 4.03 ng/g. Also, in series [4], the “Time of peak concentration in plasma” value was “one” and the “Time of peak concentration in tumor” value was “six”.

As to `COC(=O)N[C@@H](C)CNc1nccc(-c2cn(C(C)C)nc2-c2cc(Cl)cc(NS(C)(=O)=O)c2F)n1` [encorafenib], in series [4] (setting [6]), the concentration at 1 h is 14500 ± 1630 ng/mL, the concentration at 6 h turned out to be 1890 ± 654 ng/mL, the concentration at 12 h is 397 ± 106 ng/mL and the concentration at 24 h is 138 ± 112 ng/mL. Also, in series [4] (setting [7]), the concentration at 6 h was found to be 289 ± 73 ng/g, the concentration at 12 h was determined as 58.8 ± 18.8 ng/g, the concentration at 24 h was determined as 64.7 ± 36.4 ng/g and the concentration at 48 h turned out to be 3.06 ng/g. Besides, in series [4], the “Time of peak concentration in plasma” value is “one” and the “Time of peak concentration in tumor” value is “six”. For the same compound, the “Survival (average)” value in series [5] (35 mg/kg PO QD, vehicle median survival 18 days) turned out to be 46 days.
